# Test results published in US20080096943A1, “Organic Compunds” (priority 2004, published 2008).
# pIC50: −log10 of the molar value.
# Molecular target: T1, human CCR-3 (Homo sapiens, UniProt P51677)
# T1 construct: expressed in transfected cells; membranes used
# T1 sequence (P51677 1-355): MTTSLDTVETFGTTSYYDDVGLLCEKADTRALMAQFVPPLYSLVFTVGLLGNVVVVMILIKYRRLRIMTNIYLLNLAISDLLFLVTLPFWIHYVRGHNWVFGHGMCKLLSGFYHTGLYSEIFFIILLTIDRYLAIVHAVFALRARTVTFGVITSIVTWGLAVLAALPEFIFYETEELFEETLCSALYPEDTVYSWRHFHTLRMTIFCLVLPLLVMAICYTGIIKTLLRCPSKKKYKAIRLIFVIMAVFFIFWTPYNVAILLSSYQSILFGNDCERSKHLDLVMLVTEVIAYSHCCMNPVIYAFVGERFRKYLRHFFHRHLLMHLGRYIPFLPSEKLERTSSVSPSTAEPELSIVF
# Assay: [125I]-human eotaxin binding to CCR-3, SPA assay
# Settings: inhibition of [125I]-human eotaxin binding; membranes of RBL-2H3 cells stably expressing CCR3; 4 hours at room temperature
# From the text: Recombinant cells expressing human CCR-3 are captured by wheatgerm agglutinin (WGA) polyvinyltoluidene (PVT) SPA beads (available from Amersham), through a specific interaction between the WGA and carbohydrate residues of glycoproteins on the surface of the cells. [^125I]-human eotaxin (available from Amersham) binds specifically to CCR-3 receptors bringing the [^125I]-human eotaxin in close proximity to the SPA beads. Emitted â-particles from the [^125I]-human eotaxin excite, by its proximity, the fluorophore in the beads and produce light.
# Preparation of Assay Buffer: 5.96 g HEPES and 7.0 g sodium chloride are dissolved in distilled water and 1 M aqueous CaCl2 (1 ml) and 1M aqueous MgCl2 (5 ml) are added. The pH is adjusted to 7.6 with NaOH and the solution made to a final volume of 1 l using distilled water. 5 g bovine serum albumin and 0.1 g sodium azide are then dissolved in the solution and the resulting buffer stored at 4° C. […]
# Preparation of membranes: Confluent rat basophil leukaemia (RBL-2H3) cells stably expressing CCR3 are removed from tissue culture flasks using enzyme-free cell dissociation buffer and resuspended in phosphate-buffered saline. […] The resulting scintillations are counted using a Canberra Packard TOPCOUNT™ scintillator counter, each well being counted for 1 minute. […]
row,pIC50,Structure (SMILES)
1,5.81,"Cc1noc(C)c1NC(=O)NCCCCN(C)Cc1ccc(F)cc1 [Example 1, 1-(3,5-Dimethyl-isoxazole-4-yl)-3-[4-[(4-fluorobenzyl)methylamino]-butyl]-urea]"
2,7.31,"CN(CCCCNC(=O)Nc1ccc(F)c(F)c1)Cc1ccc(F)cc1 [Example 2, 1-(3,4-difluorophenyl)-3-{4-[(4-fluorobenzyl)methylamino]-butyl}-urea]"
